According to the supplement of paper PMC10307832:

Key:
Assay in all cases: relative viability (nuclei count vs DMSO), 5 days (fraction); higher = more cells survive
ChaGo-K-1 = system: ChaGo-K-1
In short: (§1)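 Cells from lung cancer lines were seeded into 1536-well plates and, one day later, dosed by pin tool. Treatments were either a single drug or a fixed dose of an anchor drug with five library-drug doses (not always all listed) in √10 steps. After 5 days, nuclei were stained in a one-step fixation (final 0.05% Triton X-100, 1% formaldehyde, 1 ug/ml Hoechst) and counted on 4× images, and relative viability is the treated-to-vehicle nuclei ratio, as the median of duplicate plates.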

IA-LM = system: IA-LM
In short: as §1

NCI-H1299 = system: NCI-H1299
In short: as §1

SW 1573 = system: SW 1573
In short: as §1

NCI-H1437 = system: NCI-H1437
In short: as §1

SK-MES-1 = system: SK-MES-1
In short: as §1

ABC-1 = system: ABC-1
In short: as §1

NCI-H1651 = system: NCI-H1651
In short: as §1

Calu-6 = system: Calu-6
In short: as §1

COR-L23 = system: COR-L23
In short: as §1

EBC-1 = system: EBC-1
In short: as §1

NCI-H1703 = system: NCI-H1703
In short: as §1

NCI-H1648 = system: NCI-H1648
In short: as §1

A549 = system: A549
In short: as §1

COc1nc(C)cnc1NS(=O)(=O)c1cccnc1-c1ccc(-c2nnco2)cc1 [Zibotentan] + O=C(c1cc(Cc2n[nH]c(=O)c3ccccc23)ccc1F)N1CCN(C(=O)C2CC2)CC1 [Olaparib] (partner 8 µM)
relative viability (ChaGo-K-1; first compound 0.08 µM): 0.393
relative viability (ChaGo-K-1; first compound 0.253 µM): 0.396
relative viability (ChaGo-K-1; first compound 0.8 µM): 0.322
relative viability (ChaGo-K-1; first compound 2.53 µM): 0.393
relative viability (IA-LM; first compound 0.08 µM): 0.966
relative viability (IA-LM; first compound 0.253 µM): 0.86
relative viability (IA-LM; first compound 0.8 µM): 0.938
relative viability (IA-LM; first compound 2.53 µM): 0.824
relative viability (NCI-H1299; first compound 0.08 µM): 1.01
relative viability (NCI-H1299; first compound 0.253 µM): 0.906
relative viability (NCI-H1299; first compound 0.8 µM): 0.973
relative viability (NCI-H1299; first compound 2.53 µM): 1
relative viability (SW 1573; first compound 0.08 µM): 0.557
relative viability (SW 1573; first compound 0.8 µM): 0.544
relative viability (SW 1573; first compound 2.53 µM): 0.459
relative viability (NCI-H1437; first compound 0.08 µM): 0.64
relative viability (NCI-H1437; first compound 0.253 µM): 0.629
relative viability (NCI-H1437; first compound 0.8 µM): 0.617
relative viability (NCI-H1437; first compound 2.53 µM): 0.621
relative viability (SK-MES-1; first compound 0.08 µM): 0.705
relative viability (SK-MES-1; first compound 0.253 µM): 0.465
relative viability (SK-MES-1; first compound 0.8 µM): 0.68
relative viability (SK-MES-1; first compound 2.53 µM): 0.787
relative viability (ABC-1; first compound 0.08 µM): 1
relative viability (ABC-1; first compound 0.253 µM): 0.527
relative viability (ABC-1; first compound 0.8 µM): 0.8
relative viability (ABC-1; first compound 2.53 µM): 0.819
relative viability (NCI-H1651; first compound 0.08 µM): 0.172
relative viability (NCI-H1651; first compound 0.253 µM): 0.191
relative viability (NCI-H1651; first compound 0.8 µM): 0.19
relative viability (NCI-H1651; first compound 2.53 µM): 0.184
relative viability (Calu-6; first compound 0.08 µM): 0.61
relative viability (Calu-6; first compound 0.253 µM): 0.518
relative viability (Calu-6; first compound 0.8 µM): 0.621
relative viability (Calu-6; first compound 2.53 µM): 0.555
relative viability (COR-L23; first compound 0.08 µM): 0.324
relative viability (COR-L23; first compound 0.253 µM): 0.284
relative viability (COR-L23; first compound 0.8 µM): 0.395
relative viability (COR-L23; first compound 2.53 µM): 0.352
relative viability (EBC-1; first compound 0.08 µM): 0.698
relative viability (EBC-1; first compound 0.253 µM): 0.713
relative viability (EBC-1; first compound 0.8 µM): 0.827
relative viability (EBC-1; first compound 2.53 µM): 0.651
relative viability (NCI-H1703; first compound 0.08 µM): 0.476
relative viability (NCI-H1703; first compound 0.253 µM): 0.368
relative viability (NCI-H1703; first compound 0.8 µM): 0.435
relative viability (NCI-H1703; first compound 2.53 µM): 0.292
relative viability (NCI-H1648; first compound 0.08 µM): 0.853
relative viability (NCI-H1648; first compound 0.253 µM): 0.503
relative viability (NCI-H1648; first compound 0.8 µM): 0.85
relative viability (NCI-H1648; first compound 2.53 µM): 0.954
relative viability (A549; first compound 0.08 µM): 0.365
relative viability (A549; first compound 0.253 µM): 0.31
relative viability (A549; first compound 0.8 µM): 0.333
relative viability (A549; first compound 2.53 µM): 0.32

O=c1cc(-c2cccc3c2Sc2ccccc2S3)oc(N2CCOCC2)c1 + O=C(CCCCCCC(=O)Nc1ccccc1)NO [Vorinostat] (partner 1 µM)
relative viability (ChaGo-K-1; first compound 0.08 µM): 0.765
relative viability (ChaGo-K-1; first compound 0.253 µM): 0.859
relative viability (ChaGo-K-1; first compound 0.8 µM): 0.876
relative viability (ChaGo-K-1; first compound 2.53 µM): 0.753
relative viability (ChaGo-K-1; first compound 8 µM): 0.847
relative viability (IA-LM; first compound 0.253 µM): 1.31
relative viability (IA-LM; first compound 0.8 µM): 0.966
relative viability (IA-LM; first compound 2.53 µM): 0.863
relative viability (IA-LM; first compound 8 µM): 1.08
relative viability (SW 1573; first compound 0.08 µM): 0.702
relative viability (SW 1573; first compound 0.253 µM): 0.933
relative viability (SW 1573; first compound 0.8 µM): 1.01
relative viability (SW 1573; first compound 2.53 µM): 0.771
relative viability (SW 1573; first compound 8 µM): 0.907
relative viability (NCI-H1437; first compound 0.08 µM): 0.857
relative viability (NCI-H1437; first compound 0.253 µM): 0.9
relative viability (NCI-H1437; first compound 0.8 µM): 0.847
relative viability (NCI-H1437; first compound 2.53 µM): 0.761
relative viability (NCI-H1437; first compound 8 µM): 0.857
relative viability (SK-MES-1; first compound 0.08 µM): 1.15
relative viability (SK-MES-1; first compound 0.253 µM): 1.23
relative viability (SK-MES-1; first compound 0.8 µM): 1.01
relative viability (SK-MES-1; first compound 2.53 µM): 0.975
relative viability (SK-MES-1; first compound 8 µM): 0.939
relative viability (ABC-1; first compound 0.08 µM): 1.13
relative viability (ABC-1; first compound 0.253 µM): 1.1
relative viability (ABC-1; first compound 0.8 µM): 1.24
relative viability (ABC-1; first compound 2.53 µM): 1.15
relative viability (ABC-1; first compound 8 µM): 0.972
relative viability (NCI-H1651; first compound 0.08 µM): 0.585
relative viability (NCI-H1651; first compound 0.253 µM): 0.638
relative viability (NCI-H1651; first compound 0.8 µM): 0.571
relative viability (NCI-H1651; first compound 2.53 µM): 0.519
relative viability (NCI-H1651; first compound 8 µM): 0.578
relative viability (COR-L23; first compound 0.08 µM): 0.472
relative viability (COR-L23; first compound 0.253 µM): 0.457
relative viability (COR-L23; first compound 0.8 µM): 0.397
relative viability (COR-L23; first compound 2.53 µM): 0.442
relative viability (COR-L23; first compound 8 µM): 0.446
relative viability (NCI-H1648; first compound 0.253 µM): 0.468
relative viability (NCI-H1648; first compound 0.8 µM): 0.65
relative viability (NCI-H1648; first compound 8 µM): 0.457

CCN(CC)CCCCNc1ncc2cc(-c3cc(OC)cc(OC)c3)c(NC(=O)NC(C)(C)C)nc2n1 + O=C(CCCCCCC(=O)Nc1ccccc1)NO [Vorinostat] (partner 1 µM)
relative viability (ChaGo-K-1; first compound 0.01 µM): 0.776
relative viability (ChaGo-K-1; first compound 0.03162 µM): 0.822
relative viability (ChaGo-K-1; first compound 0.1 µM): 0.824
relative viability (ChaGo-K-1; first compound 0.3162 µM): 0.827
relative viability (ChaGo-K-1; first compound 1 µM): 0.693
relative viability (IA-LM; first compound 0.01 µM): 0.963
relative viability (IA-LM; first compound 0.03162 µM): 0.836
relative viability (IA-LM; first compound 0.1 µM): 0.852
relative viability (IA-LM; first compound 0.3162 µM): 1.26
relative viability (IA-LM; first compound 1 µM): 0.979
relative viability (SW 1573; first compound 0.01 µM): 0.79
relative viability (SW 1573; first compound 0.03162 µM): 0.959
relative viability (SW 1573; first compound 0.1 µM): 0.952
relative viability (SW 1573; first compound 0.3162 µM): 0.707
relative viability (SW 1573; first compound 1 µM): 0.705
relative viability (NCI-H1437; first compound 0.01 µM): 0.88
relative viability (NCI-H1437; first compound 0.03162 µM): 0.821
relative viability (NCI-H1437; first compound 0.1 µM): 0.827
relative viability (NCI-H1437; first compound 0.3162 µM): 0.948
relative viability (NCI-H1437; first compound 1 µM): 0.82
relative viability (SK-MES-1; first compound 0.01 µM): 1.15
relative viability (SK-MES-1; first compound 0.03162 µM): 1.17
relative viability (SK-MES-1; first compound 0.1 µM): 1.22
relative viability (SK-MES-1; first compound 0.3162 µM): 1.52
relative viability (SK-MES-1; first compound 1 µM): 1.19
relative viability (ABC-1; first compound 0.03162 µM): 0.99
relative viability (ABC-1; first compound 0.1 µM): 1.35
relative viability (ABC-1; first compound 0.3162 µM): 1.01
relative viability (ABC-1; first compound 1 µM): 1.09
relative viability (NCI-H1651; first compound 0.01 µM): 0.541
relative viability (NCI-H1651; first compound 0.03162 µM): 0.626
relative viability (NCI-H1651; first compound 0.1 µM): 0.582
relative viability (NCI-H1651; first compound 0.3162 µM): 0.674
relative viability (NCI-H1651; first compound 1 µM): 0.475
relative viability (COR-L23; first compound 0.01 µM): 0.467
relative viability (COR-L23; first compound 0.03162 µM): 0.495
relative viability (COR-L23; first compound 0.1 µM): 0.379
relative viability (COR-L23; first compound 0.3162 µM): 0.593
relative viability (COR-L23; first compound 1 µM): 0.434
relative viability (NCI-H1648; first compound 0.01 µM): 0.48
relative viability (NCI-H1648; first compound 0.03162 µM): 0.352
relative viability (NCI-H1648; first compound 0.1 µM): 0.666
relative viability (NCI-H1648; first compound 0.3162 µM): 0.602
relative viability (NCI-H1648; first compound 1 µM): 0.327

O=c1cc(N2CCOCC2)oc2c(-c3cccc4c3sc3ccccc34)cccc12 + NC(=O)Nc1cc(-c2cccc(F)c2)sc1C(=O)N[C@H]1CCCNC1 [AZD7762] (partner 0.2 µM)
relative viability (ChaGo-K-1; first compound 0.01 µM): 0.847
relative viability (ChaGo-K-1; first compound 0.03162 µM): 0.898
relative viability (ChaGo-K-1; first compound 0.1 µM): 0.6
relative viability (ChaGo-K-1; first compound 0.3162 µM): 0.831
relative viability (ChaGo-K-1; first compound 1 µM): 0.938
relative viability (NCI-H1437; first compound 0.01 µM): 1.22
relative viability (NCI-H1437; first compound 0.03162 µM): 1.12
relative viability (NCI-H1437; first compound 0.1 µM): 1.12
relative viability (NCI-H1437; first compound 0.3162 µM): 1.1
relative viability (NCI-H1437; first compound 1 µM): 1.04
relative viability (ABC-1; first compound 0.01 µM): 0.819
relative viability (ABC-1; first compound 0.03162 µM): 0.774
relative viability (ABC-1; first compound 0.1 µM): 0.695
relative viability (ABC-1; first compound 0.3162 µM): 0.694
relative viability (ABC-1; first compound 1 µM): 0.848
relative viability (NCI-H1651; first compound 0.01 µM): 0.494
relative viability (NCI-H1651; first compound 0.03162 µM): 0.504
relative viability (NCI-H1651; first compound 0.1 µM): 0.454
relative viability (NCI-H1651; first compound 0.3162 µM): 0.44
relative viability (NCI-H1651; first compound 1 µM): 0.384
relative viability (NCI-H1703; first compound 0.01 µM): 0.143
relative viability (NCI-H1703; first compound 0.03162 µM): 0.137
relative viability (NCI-H1703; first compound 0.3162 µM): 0.146
relative viability (NCI-H1703; first compound 1 µM): 0.131
relative viability (NCI-H1648; first compound 0.03162 µM): 0.889
relative viability (NCI-H1648; first compound 0.1 µM): 0.714
relative viability (NCI-H1648; first compound 0.3162 µM): 0.609
relative viability (NCI-H1648; first compound 1 µM): 0.746
